According to US11298314B2, “Injectable composition for localized fat reduction without pain, edema, and side effects, and method for preparing same” (AMI PHARM CO., LTD., priority 2017, dated 2022):

Columns and labels:
[1] = Formulation stability of PPC injectable preparations: property, transparency, particle size, pH; conditions: based on PPC 5.0%
[2] = test system: tissues of the injected area (rat paw); test: H&E staining histological test (inflammation) of injected rat paw; format: in vivo, Sprague Dawley rats; conditions: injected rat paw
Description: The tissues of the injected area were dissected, fixed with 10% formalin, and then the specimen was prepared and images were captured using an optical microscope. The degree of inflammation was evaluated as follows.

[3] = test system: sole of the rat paws; test: Measurement of skin lesion (erythema) on rat paw; format: in vivo, Sprague Dawley rats;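 further: grades − to ++++ mean no to extremely severe erythema versus before injection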
Description: To evaluate the degree of edema, each test compositions described above were injected into the paw of the rats. Specifically, male Sprague Dawley rats (6 weeks old) were purchased and used after one week of adaptation. The rats (body weight: 170˜200 g) were randomly selected and the thickness of the rat paw were measured with a caliper before the administration of the test compositions. In order to observe the edema, 0.1 ml of PBS and the various test compositions were administered to the paws of the rats. Measurements of the […] were performed by a caliper immediately before the injection, immediately after the injection, and 1 or 2 hours after the injection. In addition, when the thickness was measured, the skin lesion of the injection site was observed by photographing the sole of the paw (using a 4×4 cm scale).
The grades of skin lesion were evaluated as 0 to 4 grades.

[4] = bile acid single composition 1.0% (w/v)
[5] = bile acid single composition 2.5% (w/v)
[6] = bile acid single composition 5.0% (w/v)

Row | Structure (SMILES) | bile acid concentration at which stable injectable preparations can be made [1] | Inflammation (H&E), BA % (w/v) 1.0 [2, 4] | Inflammation (H&E), BA % (w/v) 2.5 [2, 5] | Inflammation (H&E), BA % (w/v) 5.0 [2, 6] | grade of skin lesion (erythema), 2 hours after administration [3, 4] | grade of skin lesion (erythema), 2 hours after administration [3, 5] | grade of skin lesion (erythema), 2 hours after administration [3, 6] | grade of skin lesion (erythema), 2 hours after administration ([3]; bile acid single composition 7.5% (w/v))
1 | C[C@H](CCC(=O)O)[C@H]1CC[C@H]2[C@@H]3[C@H](O)C[C@@H]4C[C@H](O)CC[C@]4(C)[C@H]3C[C@H](O)[C@]12C [CA, (4R)-4-[(3R,5S,7R,8R,9S,10S,12S,13R,14S,17R)-3,7,12-trihydroxy-10,13-dimethyl-2,3,4,5,6,7,8,9,11,12,14,15,16,17-tetradecahydro-1H-cyclopenta[a]phenanthren-17-yl]pentanoic acid] | ≥ 2.2% |  |  |  |  |  |  | 
2 | C[C@H](CCC(=O)NCCS(=O)(=O)O)[C@H]1CC[C@H]2[C@@H]3[C@H](O)C[C@@H]4C[C@H](O)CC[C@]4(C)[C@H]3C[C@H](O)[C@]12C [TCA, 2-[[(4R)-4-[(3R,5S,7R,8R,9S,10S,12S,13R,14S,17R)-3,7,12-trihydroxy-10,13-dimethyl-2,3,4,5,6,7,8,9,11,12,14,15,16,17-tetradecahydro-1H-cyclopenta[a]phenanthren-17-yl]pentanoyl]amino]ethanesulfonic acid] | ≥ 2.5% | + | ++ | ++ | − | + | + | ++
